“And” between values parts separate entries of the source, which are not always exact repeats. Equal values may be shown once.
Tests used:
[1] = ORP of oxidant solutions at pH 7; format: physicochemical; conditions: 29 mM
yeast cells = format: cell-based, Saccharomyes cerevisiae and Schizosaccharomyces pombe
APB = format: cell-based, bacteria
SRB = format: cell-based, bacteria
[2] = tested on: bacteria population in stationary phase; format: cell-based

OO [hydrogen peroxide]
ORP [1]: about 0.5 V (vs SHE)

[O][Cl+][O-] [Chlorine Dioxide, chlorine dioxide]
Yeast activity vs untreated mash (yeast cells): greater yeast activity

OCl [hypochlorous acid]
ORP [1]: over 1.1 V (vs SHE)

CCCCCCCCCCCC[N+](C)(C)CCCCCCCCCCCC.[Br-] [DDAB, didodecyldimethylammonium bromide]
APB (APB): 3 bottles and 4 bottles
SRB (SRB): 5 bottles and 6 bottles
ATP [2]: 185 pg/mL and 291 pg/mL
Effectiveness against bacteria in the stationary phase compared with peracetate oxidant [2]: less effective

— patent US11311012B1, “Bacterial control in fermentation systems” (Clean Chemistry, Inc., priority 2017, dated 2022)
